Laboratory results: the METLIN SMRT retention time set (Domingo-Almenara et al. 2019)

Assay: gradient 5% acetonitrile 3 min, to 50% in 2 min, to 85% in 15 min, held 3 min, 100 µL/min
Settings: column: Zorbax Extend-C18 2.1 x 50 mm; eluents: water / acetonitrile, 0.1% formic acid
Method in brief: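 A Zorbax Extend-C18 column (2.1 × 50 mm, 1.8 μm) run at 100 μL/min with water and acetonitrile, both containing 0.1% formic acid, separated mixtures of ~100 pure standards. The HPLC was coupled to a quadrupole time-of-flight mass spectrometer operated in positive and negative ionization mode, with dead and dwell volumes of 40 μL and 900 μL. Each retention time was taken from a computationally picked adduct peak that was then manually inspected.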

RP-LC retention time [s]	Compound
670	O=C(NCCCN1CCCC1=O)c1cc2c(s1)CCN(C(=O)c1ccc(F)cc1)C2
1170	O=C(Nc1ccc(F)c(Cl)c1)c1sc2ncccc2c1-n1cccc1
1100	Cc1ccc(-c2noc(Cn3ncn4nc(-c5cccs5)cc4c3=O)n2)cc1
787	CCCc1c(C(=O)O)nnn1-c1cc(C)ccc1F
679	COc1cccc(C(=O)N2C[C@@H]3C[C@H](NC(=O)c4cccs4)[C@H]2C3)c1OC
926	COc1ccc(-c2noc(CSc3nccn3-c3ccc(C)cc3)n2)cc1
883	CC1(C(=O)NCc2ccccc2)CCCN(S(=O)(=O)c2ccccc2)C1 (stereo unspecified)
579	CC(C)CN1CCN(C(=O)CN2CCN(Cc3ccccc3)C2=O)CC1
558	CCN1CCN(CCCNC(=O)C2Cn3cccc3C(=O)N2CC(C)C)CC1 (stereo unspecified)
753	COc1ccc(-c2nc3cc(C)ccn3c2NC(=O)c2ccc(Cl)cc2Cl)cc1
576	O=C(c1cccnc1)N1CCC(n2c(-c3ccsc3)nc3cccnc32)C1 (stereo unspecified)
665	CC(=O)N1CCCN(C2=NS(=O)(=O)C(c3ccccc3)=C2C)CC1
637	CCc1ccc(NC(=O)c2ccc(=O)n(CCN3CCOCC3)c2)cc1
953	O=C1[C@H]2CN(Cc3ccc(Cl)c(F)c3)C[C@H]2C(=O)N1Cc1ccc2c(c1)OCO2
604	O=C(c1cccs1)N1CC(C(=O)N2CCN(c3ncccn3)CC2)C1
717	CS(=O)(=O)CCNCc1nc(-c2ccc3ncnc(Nc4ccc(OCc5cccc(F)c5)c(Cl)c4)c3c2)cs1
760	CCn1cc(CN2CCC(C(=O)NC3CCCc4ccccc43)CC2)c2cc(OC)ccc21 (stereo unspecified)

The remaining lines, values behind:

Compound	RP-LC retention time [s]
COc1cc(Cl)c(CC(=O)c2c[nH]c3ccccc23)cc1OC	883
CC(NC(=O)C1CCN(Cc2cn(C)c3ccc(Cl)cc23)CC1)c1ccccc1 (stereo unspecified)	727
Cc1ccc(Nc2c(-c3ccc(N(C)C)cc3)nc3ccc(Br)cn23)cc1	838
Cc1cc(C)n(-c2ccc(=O)n(CC(=O)N3CCN(c4ncccn4)CC3)n2)n1	623
CCc1nc2cc(N3CCC(C(=O)NCc4ccccc4F)CC3)cnc2nc1CC	840
CC1CCCN(c2nccnc2SCC(=O)Nc2ccc(F)cc2Cl)C1 (stereo unspecified)	1300
COc1cc(Br)cc(CC2C(=O)Nc3ccccc32)c1OC (stereo unspecified)	932
CCc1cccc(C)c1NC(=O)Cn1c(=O)n(-c2ccc(F)cc2)c(=O)c2c1cc(C)n2C	850
CCOc1ccccc1-c1nc(Cc2noc(-c3ccccc3)n2)c(C)o1	1170
COc1cc(NC(=O)Cn2c(=O)nc(N3CCC(C)CC3)c3ccccc32)cc(OC)c1	798
Cc1nc(-c2ccc(-c3noc(CNC(=O)Cc4ccc(Cl)cc4)n3)cc2)cs1	990
Cn1c(=O)n(Cc2cccc(Cl)c2)c(=O)c2cnc(-c3ccncc3)nc21	922
O=C1CC(c2nc(-c3ccc(Cl)cc3)no2)CN1c1ccc(F)cc1 (stereo unspecified)	1000
CCn1nnnc1NCc1ccc2c(c1)n(C)c(=O)n2C	617
CCOC[C@@H]1CC(F)(F)CN1C1CCN(Cc2ccc3cc[nH]c3c2)CC1	656
O=S(=O)(c1ccc(F)c(F)c1)N1CCc2nc(-c3ccccc3)ncc2C1	1090
Cc1cc(OCC(=O)Nc2ccccc2C#N)nc(-c2ccc(F)cc2)n1	964
CSc1ccc(CNC(=O)C2CCCN(c3nc4c(s3)c(C)nn4-c3ccccc3)C2)cc1 (stereo unspecified)	1150
Cc1nc(OCC(=O)NC2CCCCC2)c2c(-c3ccccc3)noc2n1	1010
